# What was measured:
# Details in all cases: 72 h
# CAL-148 = tested on: CAL-148
# Procedure, shortened: (§1)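 Breast cancer cell lines in 20 µl suspension were seeded onto 384-well plates pre-loaded with compound dissolved in 5 µl medium, then incubated 72 h. For viability, 2.5 µl CellTiter-Blue was added for 2 h at 37 °C and fluorescence read at 560/590 nm. Each plate was normalised to vehicle and a positive kill control and checked by Z'-factor. EC50 comes from the fitted percent-inhibition dose-response curve, censored at the highest concentration; rows with zero drug sensitivity score were dropped.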
# MDA-MB-453 = tested on: MDA-MB-453
# Procedure, shortened: as §1
# CAL-120 = tested on: CAL-120
# Procedure, shortened: as §1
# HCC1937 = tested on: HCC1937
# Procedure, shortened: as §1
# MDA-MB-231 = tested on: MDA-MB-231
# Procedure, shortened: as §1
Compound,"EC50, CellTiter-Blue viability (MDA-MB-453) [nM]","EC50, CellTiter-Blue viability (HCC1937) [nM]","EC50, CellTiter-Blue viability (MDA-MB-231) [nM]","EC50, CellTiter-Blue viability (CAL-148) [nM]","EC50, CellTiter-Blue viability (CAL-120) [nM]"
CO[C@H]1/C=C\C=C(/C)C(=O)NC2=CC(=O)C(NCCN(C)C)=C(C[C@@H](C)C[C@H](OC)[C@H](O)[C@@H](C)/C=C(\C)[C@@H]1OC(N)=O)C2=O [Alvespimycin],11.2,7.56,38.9,27.6,27.4
C[C@@H](Oc1cc(-c2cnn(C3CCNCC3)c2)cnc1N)c1c(Cl)ccc(F)c1Cl [Crizotinib],4070,2280,1360,3570,2640
CCN(CCCOc1ccc2c(Nc3cc(CC(=O)Nc4cccc(F)c4)[nH]n3)ncnc2c1)CCOP(=O)(O)O [Barasertib],6.32,29.6,156,7.07,30

# Continued, in another order:
"EC50, CellTiter-Blue viability (MDA-MB-453) [nM]","EC50, CellTiter-Blue viability (HCC1937) [nM]","EC50, CellTiter-Blue viability (MDA-MB-231) [nM]",Compound,"EC50, CellTiter-Blue viability (CAL-148) [nM]","EC50, CellTiter-Blue viability (CAL-120) [nM]"
5.76,0.62,0.34,Cc1ccc(C(=O)N(CCCN)[C@@H](c2oc3cc(Cl)ccc3c(=O)c2Cc2ccccc2)C(C)C)cc1,5.81,0.57
232,613,347,NC(=O)Nc1cc(-c2cccc(F)c2)sc1C(=O)N[C@H]1CCCNC1 [AZD 7762],661,560

# From the supplement of paper PMC4862054
